# Source: patent EP0061162A2, “Cephalosporin derivatives, pharmaceutical compositions containing the same and production thereof” (KYOTO YAKUHIN KOGYO KABUSHIKI KAISHA, priority 1981, dated 1982)
# Experiment: Acute oral toxicity test in mice
# Settings: mouse, in vivo, suspension in 1% methylcellulose solution, male mice (ICR, 5-week-old), doses 0.5 g to 5.0 g/kg
# Description: The acut oral toxicity data for cephalosporin derivatives (I) and acid addition salt of the present invention in mice are shown below.
# Animals: Male mice (ICR, 5-week-old), n=3
# Method of administration: The cephalosporin derivatives as prepared in the above synthesis examples were administered in the form of suspension in 1% methylcellulose solution to mice orally at doses of 0.5 g to 5.0 g/kg.
structure (smiles),measurement,value
"CCOC(=O)OC(C)OC(=O)C1=CCS[C@@H]2[C@H](NC(=O)/C(=N\OC)c3csc(N)n3)C(=O)N12 (single isomer, unassigned) [Compound 1, l-(ethoxycarbonyloxy)ethyl 7-[2-(2-aminothiazol-4-yl)-2-methoxyiminoacetamido]-3-cephem-4-carboxylate (syn isomer)]",LD50,> 5000 mg/kg
